Measurements taken from patent US4092350A, “Alkanoic acid, process for its production and method of use thereof” (priority 1975, dated 1978).
Like-named read-outs stand apart in the source and are kept apart here.

What was measured:
[1] = system: Carrageenin-Induced Paw Edema; assay: Inhibition of Carrageenin-Induced Paw Edema; assay type: in vivo, male Donryu rats; conditions: Rattus norvegicus, rats, oral; for ED40: 3 h
Procedure: (§1) (a) Inhibition of Carrageenin-Induced Paw Edema
(§2) Following the method of C. […] The volume of the paw was measured before and 3 hours after the carrageenin injection. The swelling index of the inflamed paw was calculated as follows. [formula]
(§3) Inhibitory percentage was calculated as follows. [formula] (b) Inhibition of Intraperitoneal Dye Leakage

in vivo = conditions: rats, oral, 7-day observation
Procedure: (§4) Thereafter, the compounds were administered orally. Beginning the next day, the compounds were administered orally at 9:00 a.m. and 4:00 p.m. for 6 days. The day after final administration, the granuloma pouches were removed and weighed. Inhibitory percentage was calculated as follows: [formula] (d) Acute Toxicity
The compounds were administered orally in male Wistar rats weighing 200 ± 10 g. The rats were observed over a 7-day period.

[2] = system: Intraperitoneal Dye Leakage; assay: Inhibition of Intraperitoneal Dye Leakage; assay type: in vivo, male Donryu rats; conditions: Rattus norvegicus, 0.75 h, rats, oral
Procedure: as §3
(§5) Five minutes thereafter, 0.2 ml. / 100 g. body weight of 3% acetic acid was injected intraperitoneally. The dye in the peritoneal exudation, sampled 45 minutes after the acetic acid injection, was subjected to the spectro-photometric estimation at 620 mμ. Inhibitory percentage was calculated as follows. [formula]

Granuloma Formation [3] = assay: Inhibition of Granuloma Formation by Granuloma Pouch Method; assay type: in vivo, male Wistar rats; conditions: Rattus norvegicus, 144 h; for ED20: read-out: ED20, Inhibition of Granuloma Formation by Granuloma Pouch Method
Procedure: (§6) (c) Inhibition of Granuloma Formation by Gramuloma Pouch Method
as §4

[4] = Inhibition of Carrageenin-Induced Paw Edema; assay type: in vivo, male Donryu rats; conditions: rat, in vivo; rats, oral; ratio of LD50 to ED40; read-out: LD50/ED40, Carrageenin-Induced Paw Edema (safety margin)
Procedure: as §1, §2, §3

[5] = Inhibition of Granuloma Formation by Cotton Pellet Method; assay type: in vivo, male Donryu rats; conditions: rat, in vivo; rats, oral; ratio of LD50 to ED20; read-out: LD50/ED20, Cotton Pellet Method (safety margin)
Procedure: (§7) (e) Inhibition of Granuloma Formation by Cotton Pellet Method
(§8) Following the method of C. […] Thereafter, the compounds were administered orally. Beginning the next day, the compounds were administered orally at 9:00 a.m. and 4:00 p.m. for 3 days. The day after final administration, the pellets were removed, dried and weighed to determine the weight of the granuloma formed around the pellets. Inhibitory percentage was calculated as follows: [formula] (f) Analgesic Activity by Acetylcholine-Induced Writhing Method in Mice

Granuloma Formation [6] = assay: as above; assay type: in vivo, male Donryu rats; conditions: Rattus norvegicus, 72 h; rats, oral, twice daily for 3 days
Procedure: as §7, §8

[7] = Inhibition of Intraperitoneal Dye Leakage; assay type: in vivo, male Donryu rats; conditions: rat, in vivo; rats, oral; ratio of LD50 to ED30; read-out: LD50/ED30, Intraperitoneal Dye Leakage (safety margin)
Procedure: as §3, §5

[8] = Inhibition of Granuloma Formation by Granuloma Pouch Method; assay type: in vivo, male Wistar rats; conditions: rat, in vivo; rats, oral; ratio of LD50 to ED20; read-out: LD50/ED20, Granuloma Pouch Method (safety margin)
Procedure: as §6, §4

[9] = system: Acetylcholine-Induced Writhing; assay: Analgesic Activity by Acetylcholine-Induced Writhing Method in Mice; assay type: in vivo, male SLC-ICR mice; conditions: Mus musculus, oral, 60 minutes before acetylcholine
Procedure: Following the method of C. A. Winter, et al. (J. Pharmac. Exp., Ther., 141, 369 (1963)), in male Donryu rats weighing 130 ± 10 g., two sterilized cotton pellets weighing 35 ± 1 mg. respectively were embedded subcutaneously at the lateral abdomen aseptically. Thereafter, the compounds were administered orally. Beginning the next day, the compounds were administered orally at 9:00 a.m. and 4:00 p.m. for 3 days. The day after final administration, the pellets were removed, dried and weighed to determine the weight of the granuloma formed around the pellets. Inhibitory percentage was calculated as follows: [formula] (f) Analgesic Activity by Acetylcholine-Induced Writhing Method in Mice
Following the method of S. S. Adams (Arch. Int. Pharmacodyn., 178, 115 (1969)), in male SLC-ICR mice weighing 20 ± 1 g., the writhing response was caused by the intraperitoneal injection of 0.1 ml. / 10 g. body weight of 7.5 mg. / kg. acetylcholine dissolved in physiological saline. The test compounds were administered orally 60 minutes before the acetylcholine injection, after which the frequency of response was counted in each animal for 8 minutes. Inhibitory percentage was calculated as follows. [formula] Note; Compound A: 2-[4-(2-methyl-3-oxobutyl)phenyl]propionic acid, […]

[10] = po, read-out: Inhibition of Granuloma Formation by Granuloma Pouch Method, Inhibition (%)

SMILES	inhibition at 3 mg/kg ([1]; 3 hours after carrageenin)	Acute Toxicity, Died/Treated (in vivo; 250 mg/kg)	inhibition at 2 mg/kg ([2]; 45 minutes after acetic acid)	inhibition at 2 mg/kg ([1]; 3 hours after carrageenin)	Acute Toxicity, Died/Treated (in vivo; 125 mg/kg)	inhibition at 0.5 mg/kg ([2]; 45 minutes after acetic acid)	ED40 [1]	ED20 (Granuloma Formation [6])	ED30 [2]	ED20 (Granuloma Formation [3]; po)	ED50 [9]	further results
CC(=O)C(C)Cc1ccc(C(C)C(=O)O)cc1 (centres unmarked) [Compound A, 2-[4-(2-methyl-3-oxobutyl)phenyl]propionic acid]	31.7%	1/8	30.6%									inhibition at 8 mg/kg (Granuloma Formation [3]; rats, oral, 8 mg/kg, twice daily for 6 days): 22.3%
CC(C(=O)O)c1ccc(CC(C)C(C)O)cc1 (centres unmarked) [Compound B, 2-[4-(2-methyl-3-hydroxybutyl)phenyl]propionic acid]	34.9%	1/8	35.3%									inhibition at 6 mg/kg (Granuloma Formation [3]; rats, oral, 6 mg/kg, twice daily for 6 days): 24.2%
CCC(Cc1ccc(C(C)C(=O)O)cc1)C(C)=O (centres unmarked) [Compound C, 2-[4-(2-ethyl-3-oxobutyl)phenyl]propionic acid]				35.2%	2/8	28.2%						inhibition at 1 mg/kg (Granuloma Formation [3]; rats, oral, 1 mg/kg, twice daily for 6 days, read-out: Inhibition of Granuloma Formation by Granuloma Pouch Method, Inhibition (%)): 22.7%
CCC(Cc1ccc(C(C)C(=O)O)cc1)C(C)O (centres unmarked) [Compound D, 2-[4-(2-ethyl-3-hydroxybutyl)phenyl]propionic acid]				38.1%	3/8	34.4%	2.5 mg/kg	0.33 mg/kg	0.31 mg/kg	0.73 mg/kg	2.7 mg/kg	selectivity ratio [4]: 52.8; LD50 at 168 h (in vivo; rat, in vivo, read-out: Acute Toxicity LD50): 132 mg/kg; selectivity ratio [5]: 400; selectivity ratio [7]: 426; selectivity ratio [8]: 181; inhibition at 1 mg/kg (Granuloma Formation [3]; [10]): 23.5%
CC(C)Cc1ccc(C(C)C(=O)O)cc1 (centres unmarked) [Ibuprofen, reference compound]							16 mg/kg	22 mg/kg	17 mg/kg	42 mg/kg	4.7 mg/kg	inhibition at 10 mg/kg ([1]; 10 mg/kg, 3 hours after carrageenin): 31.2%; Acute Toxicity, Died/Treated (in vivo; 625 mg/kg): 3/8; inhibition at 10 mg/kg ([2]; 10 mg/kg, 45 minutes after acetic acid): 17.8%; inhibition at 50 mg/kg (Granuloma Formation [3]; [10]): 21.1%
